Source: patent US5324648A, “Substituted isocoumarins as serine protease inhibitors and anti-inflammatory agents” (Georgia Tech Research Corporation, priority 1992, dated 1994)
Read-outs that look alike come from different tables or passages of the source.

How the values were obtained:
Cl^- r = molecular target: T1, Cl^- r (Homo sapiens, UniProt P00736); assay: Inactivation rate of complement protein C1r; type: biochemical; details: Table II; pH 7.5, 25° C; [I] 4.6 to 470 μM; read-out: kobs/[I]
T1 construct: Cl^- r^f
T1 sequence (P00736 464-705 limits assumed): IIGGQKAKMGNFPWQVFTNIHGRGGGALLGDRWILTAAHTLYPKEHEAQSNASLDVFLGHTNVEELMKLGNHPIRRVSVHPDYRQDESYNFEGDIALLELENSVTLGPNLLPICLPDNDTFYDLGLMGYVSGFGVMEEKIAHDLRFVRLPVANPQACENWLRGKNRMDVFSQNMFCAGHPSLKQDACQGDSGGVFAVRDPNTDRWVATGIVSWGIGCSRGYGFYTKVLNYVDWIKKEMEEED
T1 sequence (P00736 18-463 partner limits assumed): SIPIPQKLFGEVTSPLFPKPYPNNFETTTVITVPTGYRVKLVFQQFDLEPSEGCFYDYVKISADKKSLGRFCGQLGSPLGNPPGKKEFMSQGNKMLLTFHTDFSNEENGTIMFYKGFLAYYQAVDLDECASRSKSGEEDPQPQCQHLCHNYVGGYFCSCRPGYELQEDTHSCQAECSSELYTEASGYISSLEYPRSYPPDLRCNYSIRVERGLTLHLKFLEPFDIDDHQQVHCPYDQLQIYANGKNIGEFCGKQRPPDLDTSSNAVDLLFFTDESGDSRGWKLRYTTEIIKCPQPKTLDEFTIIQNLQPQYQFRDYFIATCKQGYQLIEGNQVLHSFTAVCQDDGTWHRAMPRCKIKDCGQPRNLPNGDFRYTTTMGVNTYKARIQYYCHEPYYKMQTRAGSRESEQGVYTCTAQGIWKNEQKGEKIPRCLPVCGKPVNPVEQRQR
Experimental: (§1) Inactivation rates of serine proteases by substituted isocoumarins were measured by the incubation method. An aliquot of inhibitor (25 or 50 μl) in Me2 SO was added to a buffered enzyme solution (0.01-2.3 μM) to initiate the inactivation. Aliquots (50 μl) were withdrawn at various intervals and the residual enzymatic activity was measured. Me2 SO concentration in the reaction mixture was 8-12% (v/v). 0.1 Hepes, 0.01M CaCl2, pH 7.5 buffer was utilized for trypsin and coagulation enzymes. 0.1M Hepes, 0.5M NaCl, pH 7.5 was utilized for other serine proteases. The inhibitor concentrations are shown in all the tables. Peptide thioesters or peptide nitroanilides with appropriate sequence were used as substrates for various serine proteases. All peptide thioester hydrolysis rates were measured with assay mixtures containing 4,4'-dithiodipyridine (ε324 =19800M^-1 cm^-1; Grasetti & Murray, Arch. Biochem. Biophys. 119, pp 41-49 (1967)). Peptide 4-nitroanilide nitroanilide hydrolysis was measured at 410 nm (ε410 =8800M^-1 cm^-1; Erlanger et al., Arch. Biochem. Biophys. 95, pp 271-278 (1961)). First order inactivation rate constant (kobs) were obtained from plots of ln (vt /vo) vs time, and the correlation coefficients were greater than 0.98.
^a Conditions were 0.1M Hepes, 0.5M NaCl, pH 7.5, 8-10% Me2 SO
and 25° C. Inactivation rates were measured by incubation method.
Enzyme concentrations were as follows: protein D, 1-9 μM; C2, 0.7-1
μM; B, 1.8 μM; Bb, 0.3-0.8 μM; Cl^- s, 0.07 μM; Cl^-

[1] = Prothrombin time (PT), human plasma
[2] = system: T2, human Q-31 tryptase (Homo sapiens); assay: Inactivation rate of human Q-31 tryptase; type: biochemical; details: Table VII; pH 7.5, 25° C; [I] 3 to 500 μM; read-out: kobs/[I]
T2 construct: human cytotoxic lymphocyte Q31 tryptase; endogenous in cells; host or cells: human cytotoxic lymphocyte Q31
Experimental: as §1
^a Inactivation rates were measured at 0.1M Hepes, 0.01M CaCl2,
pH 7.5, 8% Me2 SO and 25° C. by incubation method. ZArg-SBzl
(74-85 μM) was used as the substrate to monitor the residual enzymatic

bovine trypsin = molecular target: T3, bovine trypsin (Bos taurus, UniProt P00760); assay: Inactivation rate of bovine trypsin; type: biochemical; details: read-out: kobs/[I]
T3 sequence (P00760 24-246): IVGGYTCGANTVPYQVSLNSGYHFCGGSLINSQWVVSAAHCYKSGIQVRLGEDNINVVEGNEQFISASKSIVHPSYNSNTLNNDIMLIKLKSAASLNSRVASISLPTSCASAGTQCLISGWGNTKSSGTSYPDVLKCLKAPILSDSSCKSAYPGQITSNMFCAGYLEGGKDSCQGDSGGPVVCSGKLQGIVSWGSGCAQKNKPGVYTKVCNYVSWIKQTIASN
In short: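 Incubation method: isocoumarin in Me2SO added to enzyme (0.01-2.3 μM) in 0.1M Hepes, 0.01M CaCl2, pH 7.5, 8-12% Me2SO, 25° C. Residual activity sampled over time with peptide thioester (4,4'-dithiodipyridine) or 4-nitroanilide (410 nm) substrates. kobs taken from ln(vt/vo) vs time.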

[3] = Spontaneous hydrolysis in Hepes buffer; type: physicochemical; details: 0.1 Hepes, 0.5M NaCl, pH 7.5, 9% Me2SO, 25° C; for half-life: hepes buffer, read-out: t1/2 for spontaneous hydrolysis
Experimental: ^a Conditions were 0.1 Hepes, 0.5M NaCl, pH 7.5 and 9% Me2 SO at
25° C. Spontaneous hydrolysis rates were measured
spectrophotometrically by monitoring the decrease in absorbance due to th
isocoumarin ring system (wavelength 335-380 nm) using the firstorder rate

[4] = Table I, pH 7.5, 25° C, [I] 1 to 12 μM
[5] = pH 7.5, Table I, progress curve method
[6] = pH 7.5, Table I, same concentration of enzyme and inhibitor

T2 sequence (P12544 29-262): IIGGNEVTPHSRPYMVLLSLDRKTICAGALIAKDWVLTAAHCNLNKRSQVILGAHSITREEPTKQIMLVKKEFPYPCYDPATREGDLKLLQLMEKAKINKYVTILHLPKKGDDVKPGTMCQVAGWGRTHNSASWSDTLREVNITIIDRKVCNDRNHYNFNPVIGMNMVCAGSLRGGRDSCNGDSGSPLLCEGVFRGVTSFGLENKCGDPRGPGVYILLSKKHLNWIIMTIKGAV

| Compound | kinact/KI (Cl^- r) [M⁻¹ s⁻¹] | kinact/KI [2] [M⁻¹ s⁻¹] | kinact/KI (bovine trypsin; [4]) [M⁻¹ s⁻¹] | half-life [3] [h] | further results |
| --- | --- | --- | --- | --- | --- |
| O=c1oc(Cl)c(Cl)c2ccccc12 [3,4-dichloroisocoumarin, reference compound] | 42 | 29 | – | – | PT ([1]; [I] 33 μM): 12.4 s |
| N=C(N)SCCOc1oc(=O)c2ccccc2c1Cl [3-(2-isothiureidoethoxy)-4-chloroisocoumarin] | – | – | 32000 | 1.38 | – |
| NCCCOc1oc(=O)c2ccccc2c1Cl [3-(3-aminopropoxy)-4-chloroisocoumarin] | – | – | 7600 | 2.05 | – |
| N=C(N)SCCCOc1oc(=O)c2ccccc2c1Cl [3-(3-isothiureidopropoxy)-4-chloroisocoumarin] | 6610 | 12800 | 46000 | 1.65 | PT ([1]; [I] 31 μM): 12.3 s |
| N=C(N)SCCCOc1oc(=O)c2cc(N)ccc2c1Cl [7-amino-4-chloro-3-(3-isothiureidopropoxy)isocoumarin] | 1320 | 1960 | – | – | kinact/KI (bovine trypsin; [5]): 410000 M⁻¹ s⁻¹; t1/2 for spontaneous hydrolysis [3]: 1.5 h; PT ([1]; [I] 29 μM): 19.4 s |
| CCOc1oc(=O)c2cc(NC(=N)N)ccc2c1Cl [7-guanidino-3-ethoxy-4-chloroisocoumarin, 7-guanidino-4-chloro-3-ethoxyisocoumarin] | 239 | 6180 | – | 0.65 | kinact/KI (bovine trypsin; [6]): > 110000 M⁻¹ s⁻¹; PT ([1]; [I] 21 μM): 22.4 s; PT ([1]; [I] 53 μM): 31.4 s; PT ([1]; [I] 75 μM): 44.2 s; PT ([1]; [I] 107 μM): 80 s |
| COc1cc2ccc(NC(=N)N)cc2c(=O)o1 [7-guanidino-3-methoxyisocoumarin] | – | – | 3300 | 4.2 | – |
| N=C(N)Nc1ccc2c(Cl)c(OCCc3ccccc3)oc(=O)c2c1 [7-guanidino-4-chloro-3-(2-phenylethoxy)isocoumarin] | 342 | 1880 | – | 0.6 | kinact/KI (bovine trypsin; [6]): > 110000 M⁻¹ s⁻¹; PT ([1]; [I] 27 μM): 13.0 s |
| COc1oc(=O)c2cc(NC(=N)N)ccc2c1Cl [7-guanidino-4-chloro-3-methoxyisocoumarin] | 75 | 6620 | – | 0.733 | kinact/KI (bovine trypsin; [5]): 310000 M⁻¹ s⁻¹; PT ([1]; [I] 21 μM): 16.5 s |
| N=C(N)SCCOc1oc(=O)c2cc(NC(=O)Nc3ccccc3)ccc2c1Cl [PhNHCONH-CiTEtOIC, 7-(phenylcarbamoylamino)-4-chloro-3-(2-isothiureidoethoxy)isocoumarin] | – | – | – | – | kinact/KI (bovine trypsin; Table VIII, pH 7.5, 25° C, [I] 1.1-4.6 μM): 21000 M⁻¹ s⁻¹; t1/2 for spontaneous hydrolysis [3]: 1.8 h |
